In ChEMBL document CHEMBL1649573, “Protein kinase G is required for intrinsic antibiotic resistance in mycobacteria” (2009):
In brackets after ≈: the same amount, converted by molar mass.

tested on: Mycolicibacterium smegmatis; assay: Antimycobacterial activity against PknGMsm-deficient Mycobacterium smegmatis harboring PknG Mtb gene by Etest method; format: functional

Q: `C[C@@H](O)[C@H]1C(=O)N2C(C(=O)O)=C(SCCNC=N)C[C@H]12` [IMIPENEM ANHYDROUS] was tested. Which MIC did it give?
A: 6 µg/mL (≈ 20 µM)

Q: How did the MIC turn out when `CC[C@H]1OC(=O)[C@H](C)[C@@H](O[C@H]2C[C@@](C)(OC)[C@@H](O)[C@H](C)O2)[C@H](C)[C@@H](O[C@@H]2O[C@H](C)C[C@H](N(C)C)[C@H]2O)[C@](C)(O)C[C@@H](C)C(=O)[C@H](C)[C@@H](O)[C@]1(C)O` [ERYTHROMYCIN] was run?
A: 32 µg/mL (≈ 43.6 µM)

Q: How did the MIC turn out when `CO[C@H]1/C=C/O[C@@]2(C)Oc3c(C)c(O)c4c(O)c(c(/C=N/N5CCN(C)CC5)c(O)c4c3C2=O)NC(=O)/C(C)=C\C=C\[C@H](C)[C@H](O)[C@@H](C)[C@@H](O)[C@@H](C)[C@H](OC(C)=O)[C@@H]1C` [RIFAMPIN] was run?
A: > 32 µg/mL

Q: With `CN[C@H](CC(C)C)C(=O)N[C@H]1C(=O)N[C@@H](CC(N)=O)C(=O)N[C@H]2C(=O)N[C@H]3C(=O)N[C@H](C(=O)N[C@H](C(=O)O)c4cc(O)cc(O)c4-c4cc3ccc4O)[C@H](O)c3ccc(c(Cl)c3)Oc3cc2cc(c3O[C@@H]2O[C@H](CO)[C@@H](O)[C@H](O)[C@H]2O[C@H]2C[C@](C)(N)[C@H](O)[C@H](C)O2)Oc2ccc(cc2Cl)[C@H]1O` [VANCOMYCIN] as the molecule, how does the MIC read?
A: 48 µg/mL (≈ 33.1 µM)

Q: For `CC[C@@H](CO)NCCN[C@@H](CC)CO` [ETHAMBUTOL], which MIC is on record?
A: 0.25 µg/mL (≈ 1.22 µM)
